Experiment: xn = mol fraction of the nth substance listed

CC(C)C(C)C + CCCCCCCCCCCCCC
298 K, 101.33 kPa
Conditions | viscosity [mPa·s]
x1 = 0.1 | 1.884
x1 = 0.2006 | 1.669
x1 = 0.3044 | 1.451
x1 = 0.4033 | 1.246
x1 = 0.503 | 1.051
x1 = 0.6031 | 0.8719
x1 = 0.701 | 0.7123
x1 = 0.8016 | 0.5711
x1 = 0.9008 | 0.4356

CCCOCCO + OCCOCCOCCOCCO
101 kPa
Conditions | viscosity [mPa·s]
293.15 K, x1 = 0.0542 | 48.17
293.15 K, x1 = 0.1014 | 43.86
293.15 K, x1 = 0.201 | 35.31
293.15 K, x1 = 0.3003 | 27.79
293.15 K, x1 = 0.3986 | 21.51
293.15 K, x1 = 0.4476 | 18.81
293.15 K, x1 = 0.5026 | 16.04
293.15 K, x1 = 0.5513 | 13.99
293.15 K, x1 = 0.6093 | 11.77
293.15 K, x1 = 0.6955 | 9.005
293.15 K, x1 = 0.8069 | 6.17
293.15 K, x1 = 0.8986 | 4.294
293.15 K, x1 = 0.9299 | 3.73
298.15 K, x1 = 0.0471 | 40.86
298.15 K, x1 = 0.1215 | 35.33
298.15 K, x1 = 0.2008 | 29.71
298.15 K, x1 = 0.2987 | 23.76
298.15 K, x1 = 0.4022 | 18.52
298.15 K, x1 = 0.4601 | 16.06
298.15 K, x1 = 0.5018 | 14.48
298.15 K, x1 = 0.5507 | 12.73
298.15 K, x1 = 0.5961 | 11.26
298.15 K, x1 = 0.6975 | 8.355
298.15 K, x1 = 0.7954 | 5.941
298.15 K, x1 = 0.9023 | 3.732
298.15 K, x1 = 0.947 | 2.996
303.15 K, x1 = 0.0564 | 32.24
303.15 K, x1 = 0.1139 | 28.91
303.15 K, x1 = 0.2071 | 23.96
303.15 K, x1 = 0.304 | 19.47
303.15 K, x1 = 0.3911 | 15.98
303.15 K, x1 = 0.4512 | 13.87
303.15 K, x1 = 0.5003 | 12.29
303.15 K, x1 = 0.5411 | 11.08
303.15 K, x1 = 0.5977 | 9.543
303.15 K, x1 = 0.7007 | 7.098
303.15 K, x1 = 0.794 | 5.232
303.15 K, x1 = 0.8948 | 3.54
303.15 K, x1 = 0.9402 | 2.883

CCCOCCO + CN1CCCC1=O
298.15 K, 101 kPa
Conditions | viscosity [mPa·s]
x1 = 0.0057 | 1.693
x1 = 0.0142 | 1.702
x1 = 0.0273 | 1.719
x1 = 0.0609 | 1.756
x1 = 0.1004 | 1.803
x1 = 0.1386 | 1.847
x1 = 0.1786 | 1.891
x1 = 0.2186 | 1.94
x1 = 0.2578 | 1.996
x1 = 0.2966 | 2.038
x1 = 0.3343 | 2.078
x1 = 0.3852 | 2.132
x1 = 0.4436 | 2.186
x1 = 0.5011 | 2.244
x1 = 0.5422 | 2.28
x1 = 0.6093 | 2.311
x1 = 0.6638 | 2.343
x1 = 0.7673 | 2.355
x1 = 0.8387 | 2.365
x1 = 0.8702 | 2.362
x1 = 0.9445 | 2.359
x1 = 0.976 | 2.354

CCCOCCO + CN(C)C=O
298.15 K, 101 kPa
Conditions | viscosity [mPa·s]
x1 = 0.0076 | 0.821
x1 = 0.0172 | 0.834
x1 = 0.029 | 0.846
x1 = 0.0502 | 0.874
x1 = 0.1029 | 0.948
x1 = 0.1416 | 0.998
x1 = 0.1927 | 1.07
x1 = 0.264 | 1.18
x1 = 0.2944 | 1.223
x1 = 0.3428 | 1.289
x1 = 0.3521 | 1.305
x1 = 0.4414 | 1.458
x1 = 0.5181 | 1.582
x1 = 0.5987 | 1.726
x1 = 0.6457 | 1.809
x1 = 0.6982 | 1.895
x1 = 0.7555 | 1.989
x1 = 0.8533 | 2.164
x1 = 0.9398 | 2.308
x1 = 0.9729 | 2.345

Nc1cccc2ccccc12 + Oc1ccccc1
viscosity [mPa·s], 101.33 kPa
Conditions | x1 = 0.4159 | x1 = 0.4605 | x1 = 0.7133 | x1 = 0.8902
303.15 K | 24.9 | 26.9 | 32.4 | –
323.15 K | 8.52 | 9 | 10.9 | 11.3

N#Cc1ccccc1 + CCCCO
viscosity [mPa·s], 101.33 kPa
Conditions | x1 = 0.033 | x1 = 0.1519 | x1 = 0.2155 | x1 = 0.3392 | x1 = 0.4092 | x1 = 0.504 | x1 = 0.6218 | x1 = 0.7894 | x1 = 0.9629
303.15 K | 2.094 | 1.716 | 1.583 | 1.382 | 1.3 | 1.213 | 1.149 | 1.108 | 1.119
308.15 K | 1.844 | 1.534 | 1.414 | 1.245 | 1.186 | 1.108 | 1.053 | 1.021 | 1.04
313.15 K | 1.66 | 1.378 | 1.281 | 1.14 | 1.08 | 1.02 | 0.976 | 0.945 | 0.978

C=CCNCC=C.CC(=O)O + O
101 kPa, x2 = 0.284
Conditions | viscosity [mPa·s]
298.15 K | 80
308.15 K | 45.7
318.15 K | 27.6

N#Cc1ccccc1 + CCCO
viscosity [mPa·s], 101.33 kPa
Conditions | x1 = 0.1072 | x1 = 0.2174 | x1 = 0.2995 | x1 = 0.4082 | x1 = 0.5248 | x1 = 0.5951 | x1 = 0.6992 | x1 = 0.7547 | x1 = 0.9108
303.15 K | 1.447 | 1.31 | 1.222 | 1.138 | 1.096 | 1.079 | 1.066 | 1.071 | 1.094
308.15 K | 1.308 | 1.19 | 1.113 | 1.037 | 1.006 | 0.994 | 0.986 | 0.991 | 1.018
313.15 K | 1.187 | 1.082 | 1.017 | 0.955 | 0.93 | 0.918 | 0.913 | 0.919 | 0.951
